From patent EP1561465A2, “Methods of use of fluoroquinolone compounds against bacteria” (LG Life Sciences, Ltd., priority 1999, dated 2001)
Values after ≈ are worked out from the molar mass of the structure shown. Read-outs that look alike come from different tables or passages of the source.

Experiments:
Format in all cases: cell-based
Klebsiella oxytoca = experiment: MIC by NCCLS broth microdilution, 1100 Japanese clinical isolates 1997-1998; conditions: Klebsiella oxytoca (n=40)
Morganella morganii = experiment: as above
E. coli = experiment: microbe, parasite or virus in culture; conditions: Escherichia coli
Enterobacter cloacae = experiment: MIC by NCCLS broth microdilution, 1100 Japanese clinical isolates 1997-1998; conditions: Enterobacter cloacae (n=40)
Enterococcus faecalis = experiment: as above; conditions: for MIC50 / MIC90: Enterococcus faecalis; for MIC90: read-out: MIC90
Haemophilus influenzae [1] = experiment: MIC by two-fold serial agar dilution, Sensitivity Disk agar-N (Kitasato isolates); conditions: Haemophilus influenzae (24)
Klebsiella pneumoniae [2] = experiment: MIC by NCCLS reference broth microdilution, 450 respiratory tract pathogens; conditions: for MIC50 / MIC90: Klebsiella pneumoniae
Enterococcus gallinarum = experiment: MIC by NCCLS broth microdilution, 1100 Japanese clinical isolates 1997-1998; conditions: Enterococcus gallinarum, GALLINARUM, Enterococcus gallinarum (vanC1), read-out: MIC
Staphylococcus aureus = experiment: microbe, parasite or virus in culture
Yersinia enterocolitica = experiment: MIC by agar dilution (NCCLS M7-A4), 288 enteropathogenic isolates, gemifloxacin and 15 other antimicrobials; conditions: Yersinia enterocolitica N= 22
Shigella spp. = experiment: as above; conditions: Shigella spp. N= 21
Method in brief: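 Agar dilution with ~10^4 cfu/spot inoculum; plates incubated aerobically at 35 °C for 24 h, except C. jejuni, held microaerophilically for 48 h. MIC taken as lowest antibiotic concentration with no visible growth.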

Klebsiella pneumoniae [3] = experiment: MIC by agar dilution (NCCLS), 322 nosocomial Gram negative isolates, Athens 1998; conditions: n = 56 isolates
Haemophilus influenzae [4] = experiment: MIC by broth microdilution (NCCLS), dried MicroScan panels, clinical isolates 1998-1999; conditions: for MIC90: Haemophilus influenzae
Hafnia alvei = experiment: MIC by agar dilution (NCCLS M7-A4), 288 enteropathogenic isolates, eight quinolones; conditions: Hafnia alvei (n = 32)
Enterobacter spp. = experiment: MIC by agar dilution (NCCLS), 322 nosocomial Gram negative isolates, Athens 1998; conditions: Enterobacter, n = 57 isolates
Streptococcus pyogenes = experiment: MIC by agar dilution (NCCLS), 411 isolates Buenos Aires 1998-99; conditions: Streptococcus pyogenes (n = 69)
Salmonella spp. = experiment: MIC by agar dilution (NCCLS M7-A4), 288 enteropathogenic isolates, eight quinolones; conditions: for MIC: ciprofloxacin MIC ≥[…], read-out: MIC
[5] = system: Mycobacterium tuberculosis (MTB); experiment: MIC by proportions method (NCCLS M24-T, 1995), 82 MTB strains; conditions: Mycobacterium tuberculosis; 82 MTB strains
Proteus mirabilis = experiment: MIC by agar dilution (NCCLS), 322 nosocomial Gram negative isolates, Athens 1998; conditions: Proteus mirabilis; n = 57 isolates
[6] = Enterococcus faecalis ciprofloxacin resistant (n=15)
[7] = Enterococcus faecalis ciprofloxacin susceptible (n=24)
[8] = extended spectrum β-lactamase negative (n = 30)
[9] = extended spectrum β-lactamase positive (n = 20)
[10] = 24 h, read-out: MIC (mg/L) Range
[11] = Haemophilus influenzae (300 isolates)

SMILES: C[C@@H]1CN(c2c(F)c(N)c3c(=O)c(C(=O)O)cn(C4CC4)c3c2F)C[C@H](C)N1 [Sparfloxacin, sparfloxacin]
- MIC50 (Klebsiella oxytoca): 0.063 µg/mL (≈ 0.161 µM)
- MIC90 (Klebsiella oxytoca): 8 µg/mL (≈ 20.4 µM)
- MIC Range (Klebsiella oxytoca): 0.016 to 32 µg/mL
- MIC50 (Morganella morganii; Morganella morganii): 0.125 µg/mL (≈ 0.319 µM)
- MIC Range (Morganella morganii; Morganella morganii (n=40)): 0.063 to 16 µg/mL
- MIC90 (Morganella morganii; Morganella morganii (n=40), read-out: MIC90): 0.5 µg/mL (≈ 1.27 µM)
- MIC50 (E. coli; E. coli (13 strains), quinolone-resistant, read-out: MIC50): 0.125 µg/mL (≈ 0.319 µM)
- MIC90 (E. coli; E. coli (13 strains), quinolone-resistant, read-out: MIC90): 0.5 µg/mL (≈ 1.27 µM)
- MIC (E. coli; E. coli KU1029, mutant type SP (spontaneous mutant in the DNA gyrase)): 0.031 µg/mL (≈ 0.079 µM)
- MIC (E. coli; E. coli KU1030, mutant type SP): 0.063 µg/mL (≈ 0.161 µM)
- MIC (E. coli; E. coli KU1031, mutant type SP): 0.031 µg/mL (≈ 0.079 µM)
- MIC (E. coli; E. coli KU1032, mutant type SP): 0.125 µg/mL (≈ 0.319 µM)
- MIC (E. coli; E. coli KU1033, mutant type SP): 0.031 µg/mL (≈ 0.079 µM)
- MIC (E. coli; E. coli KU1034, mutant type GA (DNA gyrase A)): 0.5 µg/mL (≈ 1.27 µM)
- MIC (E. coli; E. coli KU1035, mutant type GA (DNA gyrase A)): 0.5 µg/mL (≈ 1.27 µM)
- MIC (E. coli; E. coli KU1036, mutant type GB (DNA gyrase B)): 0.063 µg/mL (≈ 0.161 µM)
- MIC (E. coli; E. coli KU1038, mutant type SP): 0.031 µg/mL (≈ 0.079 µM)
- MIC (E. coli; E. coli KU1039, mutant type SP): 0.25 µg/mL (≈ 0.637 µM)
- MIC (E. coli; E. coli KU1040, mutant type SP): ≤ 0.008 µg/mL
- MIC (E. coli; E. coli KU1041, mutant type SP): 0.25 µg/mL (≈ 0.637 µM)
- MIC (E. coli; E. coli KU1042, mutant type SP): 0.063 µg/mL (≈ 0.161 µM)
- MIC50 (Enterobacter cloacae): 0.032 µg/mL (≈ 0.0815 µM)
- MIC90 (Enterobacter cloacae): 1 µg/mL (≈ 2.55 µM)
- MIC Range (Enterobacter cloacae): ≤0.008 to 2 µg/mL
- MIC Range (Enterococcus faecalis; [6]): 0.5 to 64 µg/mL
- MIC Range (Enterococcus faecalis; [7]): 0.5 to 1 µg/mL
- MIC50 (Enterococcus faecalis; [6]): 16 µg/mL (≈ 40.8 µM)
- MIC90 (Enterococcus faecalis; [6]): 64 µg/mL (≈ 163 µM)
- MIC50 (Enterococcus faecalis; [7]): 0.5 µg/mL (≈ 1.27 µM)
- MIC90 (Enterococcus faecalis; [7]): 1 µg/mL (≈ 2.55 µM)
- MIC50 (Haemophilus influenzae [1]): 0.016 µg/mL (≈ 0.0408 µM)
- MIC90 (Haemophilus influenzae [1]): 0.031 µg/mL (≈ 0.079 µM)
- MIC Range (Haemophilus influenzae [1]): ≤0.004 to 0.063 µg/mL
- MIC Range (Klebsiella pneumoniae [2]; Klebsiella pneumoniae (n = 50)): ≤0.0075 to 1 µg/mL
- MIC50 (Klebsiella pneumoniae [2]; Klebsiella pneumoniae (n = 50)): 0.06 µg/mL (≈ 0.153 µM)
- MIC90 (Klebsiella pneumoniae [2]; Klebsiella pneumoniae (n = 50)): 0.5 µg/mL (≈ 1.27 µM)
- MIC50 (Klebsiella pneumoniae [2]; [8]): 0.03 µg/mL (≈ 0.0765 µM)
- MIC90 (Klebsiella pneumoniae [2]; [8]): 0.12 µg/mL (≈ 0.306 µM)
- MIC50 (Klebsiella pneumoniae [2]; [9]): 0.5 µg/mL (≈ 1.27 µM)
- MIC90 (Klebsiella pneumoniae [2]; [9]): 0.5 µg/mL (≈ 1.27 µM)
- MIC Range (Klebsiella pneumoniae [2]; [8]): ≤0.0075 to 0.25 µg/mL
- MIC Range (Klebsiella pneumoniae [2]; [9]): 0.03 to 0.5 µg/mL
- MIC (Enterococcus gallinarum; strain TMS1): 0.25 µg/mL (≈ 0.637 µM)
- MIC (Enterococcus gallinarum; strain TMS2): 0.5 µg/mL (≈ 1.27 µM)
- MIC (Enterococcus gallinarum; strain TMS3): 0.5 µg/mL (≈ 1.27 µM)
- MIC (Enterococcus gallinarum; strain TMS4): 0.25 µg/mL (≈ 0.637 µM)
- MIC Range (Staphylococcus aureus; Methicillin-resistant (38)): 0.063 to 64 µg/mL
- MIC Range (Staphylococcus aureus; Methicillin-susceptible (9)): 0.063 to 0.5 µg/mL
- MIC50 (Staphylococcus aureus; Staphylococcus aureus, Methicillin-resistant (38)): 2 µg/mL (≈ 5.1 µM)
- MIC90 (Staphylococcus aureus; Staphylococcus aureus, Methicillin-resistant (38), read-out: MIC90): 64 µg/mL (≈ 163 µM)
- MIC50 (Staphylococcus aureus; Staphylococcus aureus, Methicillin-susceptible (9)): 0.125 µg/mL (≈ 0.319 µM)
- MIC (Staphylococcus aureus; Staphylococcus aureus, S. aureus KU2240, mutant type Wild (wild strain)): 0.25 µg/mL (≈ 0.637 µM)
- MIC (Staphylococcus aureus; Staphylococcus aureus, S. aureus KU2241, mutant type NorA (efflux-mediated quinolone resistant)): 0.25 µg/mL (≈ 0.637 µM)
- MIC (Staphylococcus aureus; Staphylococcus aureus, S. aureus KU2242, mutant type T (DNA topoisomerase IV)): 0.25 µg/mL (≈ 0.637 µM)
- MIC (Staphylococcus aureus; Staphylococcus aureus, S. aureus KU2243, mutant type G+T (DNA gyrase and topoisomerase IV)): 64 µg/mL (≈ 163 µM)
- MIC (Staphylococcus aureus; Staphylococcus aureus, S. aureus KU2244, mutant type G (DNA gyrase)): 0.25 µg/mL (≈ 0.637 µM)
- MIC (Staphylococcus aureus; Staphylococcus aureus, S. aureus KU2245, mutant type G+T (DNA gyrase and topoisomerase IV)): 64 µg/mL (≈ 163 µM)
- MIC (Staphylococcus aureus; Staphylococcus aureus, S. aureus KU2246, mutant type T (DNA topoisomerase IV)): 0.25 µg/mL (≈ 0.637 µM)

SMILES: CC1COc2c(N3CCN(C)CC3)c(F)cc3c(=O)c(C(=O)O)cn1c23 (stereo not drawn) [Ofloxacin, ofloxacin]
- MIC (Yersinia enterocolitica; [10]): 0.03 to 0.5 mg/L (≈ 0.083 to 1.38 µM)
- MIC (Yersinia enterocolitica; read-out: MIC (mg/L) 50%): 0.12 mg/L (≈ 0.332 µM)
- MIC (Yersinia enterocolitica; read-out: MIC (mg/L) 90%): 0.12 mg/L (≈ 0.332 µM)
- MIC (Shigella spp.; [10]): 0.015 to 0.06 mg/L (≈ 0.0415 to 0.166 µM)
- MIC (Shigella spp.; read-out: MIC (mg/L) 50%): 0.03 mg/L (≈ 0.083 µM)
- MIC (Shigella spp.; read-out: MIC (mg/L) 90%): 0.06 mg/L (≈ 0.166 µM)
- MIC50 (Klebsiella pneumoniae [3]; Klebsiella pneumoniae): 0.125 µg/mL (≈ 0.346 µM)
- MIC90 (Klebsiella pneumoniae [3]; Klebsiella pneumoniae): 1 µg/mL (≈ 2.77 µM)
- MIC Range (Klebsiella pneumoniae [3]): 0.06 to 32 µg/mL
- MIC50 (Haemophilus influenzae [4]; [11]): ≤ 0.06 µg/mL
- MIC Range (Haemophilus influenzae [4]; [11]): ≤0.06 to 0.5 µg/mL
- MIC90 (Haemophilus influenzae [4]; [11]): ≤ 0.06 µg/mL
- MIC90 (Haemophilus influenzae [4]; β-lactamase negative (234)): ≤ 0.06 µg/mL
- MIC90 (Haemophilus influenzae [4]; β-lactamase positive (66)): 0.12 µg/mL (≈ 0.332 µM)
- % Susceptible (Hafnia alvei): 100%
- MIC50 (Hafnia alvei): 0.03 µg/mL (≈ 0.083 µM)
- MIC90 (Hafnia alvei): 0.03 µg/mL (≈ 0.083 µM)
- MIC Range (Hafnia alvei): 0.03 µg/mL (≈ 0.083 µM)
- MIC50 (Enterobacter spp.; read-out: MIC50): 0.125 µg/mL (≈ 0.346 µM)
- MIC90 (Enterobacter spp.; read-out: MIC90): 64 µg/mL (≈ 177 µM)
- MIC Range (Streptococcus pyogenes): 0.5 to 4 µg/mL
- MIC90 (Streptococcus pyogenes; read-out: MIC90): 2 µg/mL (≈ 5.53 µM)
- MIC (Salmonella spp.; S. hadar (n = 2)): 2 µg/mL (≈ 5.53 µM)
- MIC (Salmonella spp.; S. newport (n = 1)): 2 µg/mL (≈ 5.53 µM)
- % Susceptible (Salmonella spp.; Salmonella spp. (n = 106)): 100%
- MIC50 (Salmonella spp.; Salmonella spp. (n = 106)): 0.12 µg/mL (≈ 0.332 µM)
- MIC90 (Salmonella spp.; Salmonella spp. (n = 106)): 0.5 µg/mL (≈ 1.38 µM)
- MIC Range (Salmonella spp.; Salmonella spp. (n = 106)): 0.06 to 2 µg/mL
- MIC (Salmonella spp.; Salmonella, S. tshiongwe (n = 1)): 2 µg/mL (≈ 5.53 µM)
- MIC90 [5]: 2 µg/mL (≈ 5.53 µM)
- MIC50 (Proteus mirabilis): 0.25 µg/mL (≈ 0.692 µM)
- MIC90 (Proteus mirabilis): 32 µg/mL (≈ 88.6 µM)
